Data taken from PubChem BioAssay AID248 (DTP/NCI, 2004).
Several values for one entry are separate records, joined by “and”; a condition that tells them apart may be missing. Equal entries are not always repeated. Inconclusive results and toxic doses are left out. Cut-off read from the data, not from the text of the source: active = T/C of 150% or more; inactive = T/C below 125%.

System: L1210 leukemia ip in BDF1 mice, survival T/C
Assay: NCI In Vivo Anticancer Drug Screen. Data for tumor model L1210 Leukemia (intraperitoneal) in B6D2F1 (BDF1) mice
Conditions: endpoint: mean survival time, higher = longer survival
Outline: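 Tumor cells were implanted, animals were treated, and survival was followed. The result divides the treated measurement by the vehicle-control measurement.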

[1] = dose: 100.0 mg/kg/injection, schedule: Q04DX002 (ip), vehicle: Klucel (hydroxypropylcellulose) (HPC)
[2] = dose: 200.0 mg/kg/injection, schedule: Q04DX002 (ip), vehicle: Klucel (hydroxypropylcellulose) (HPC)
[3] = dose: 400.0 mg/kg/injection, schedule: Q04DX002 (ip), vehicle: Klucel (hydroxypropylcellulose) (HPC)
[4] = dose: 100.0 mg/kg/injection, schedule: Q01DX009 (ip), vehicle: saline
[5] = dose: 100.0 mg/kg/injection, schedule: Q04DX003 (ip), vehicle: saline with Tween-80
[6] = dose: 100.0 mg/kg/injection, schedule: Q01DX009 (ip), vehicle: Klucel (hydroxypropylcellulose) (HPC)
[7] = dose: 50.0 mg/kg/injection, schedule: Q04DX003 (ip), vehicle: saline
[8] = dose: 100.0 mg/kg/injection, schedule: Q04DX003 (ip), vehicle: saline
[9] = dose: 100.0 mg/kg/injection, schedule: Q01DX001 (ip), vehicle: saline
[10] = dose: 100.0 mg/kg/injection, schedule: Q01DX001 (ip), vehicle: carboxymethylcellulose (CMC)

Measured: T/C

CC1=CC(=O)C2=C(C)C[C@H](O)[C@@H]3[C@H](OC(=O)[C@H]3C)[C@@H]12
inactive: dose: 100.0 mg/kg/injection, schedule: Q04DX002 (ip), vehicle: saline 100 % of control | dose: 200.0 mg/kg/injection, schedule: Q04DX002 (ip), vehicle: saline 89 % of control | dose: 400.0 mg/kg/injection, schedule: Q04DX002 (ip), vehicle: saline 95 % of control

CN(C)N=Nc1ccc(-c2nnco2)cc1
inactive: dose: 100.0 mg/kg/injection, schedule: Q04DX002 (ip), vehicle: saline with Tween-80 110 % of control | dose: 200.0 mg/kg/injection, schedule: Q04DX002 (ip), vehicle: saline with Tween-80 106 % of control | dose: 400.0 mg/kg/injection, schedule: Q04DX002 (ip), vehicle: saline with Tween-80 119 % of control

NOC(=O)c1ccc([N+](=O)[O-])cc1
inactive: [1] 94 % of control | [2] 94 % of control | [3] 94 % of control

CC(C)(C)NC[Si](C)(C)C
inactive: [4] 92 % of control

Cc1cc(N)c(C)c(C)c1O
inactive: dose: 12.5 mg/kg/injection, schedule: Q04DX003 (ip), vehicle: saline with Tween-80 94 % of control | dose: 25.0 mg/kg/injection, schedule: Q04DX003 (ip), vehicle: saline with Tween-80 94 % of control | dose: 50.0 mg/kg/injection, schedule: Q04DX003 (ip), vehicle: saline with Tween-80 94 % of control | [5] 101 % of control

C=CCN(CC=C)C(=O)Nc1ccc(C(=O)N/N=C/c2cccc(OC)c2OC)cc1
inactive: [6] 103 % of control and 88 % of control | [1] 95 % of control and 105 % of control | dose: 200.0 mg/kg/injection, schedule: Q01DX009 (ip), vehicle: Klucel (hydroxypropylcellulose) (HPC) 100 % of control and 88 % of control | [2] 94 % of control and 101 % of control | dose: 400.0 mg/kg/injection, schedule: Q01DX009 (ip), vehicle: Klucel (hydroxypropylcellulose) (HPC) 95 % of control | [3] 97 % of control and 105 % of control

CN(C)C(=O)C(=O)c1c[nH]c2ccccc12
inactive: [1] 118 % of control | [2] 109 % of control | [3] 109 % of control

CC1(c2ccco2)NC(=O)N(Cl)C1=O (configuration not stated)
inactive: dose: 6.0 mg/kg/injection, schedule: Q04DX003 (ip), vehicle: saline 93 % of control | dose: 12.0 mg/kg/injection, schedule: Q04DX003 (ip), vehicle: saline 101 % of control | dose: 25.0 mg/kg/injection, schedule: Q01DX009 (ip), vehicle: saline 87 % of control | dose: 32.0 mg/kg/injection, schedule: Q04DX003 (ip), vehicle: saline 95 % of control | dose: 50.0 mg/kg/injection, schedule: Q01DX009 (ip), vehicle: saline 98 % of control | [7] 103 % of control | [4] 88 % of control | [8] 97 % of control and 103 % of control

[N-]=[N+]=Nc1cnn(-c2ccccc2)c(=O)c1Cl
inactive: dose: 18.75 mg/kg/injection, schedule: Q01DX009 (ip), vehicle: saline with Tween-80 105 % of control | dose: 37.5 mg/kg/injection, schedule: Q01DX009 (ip), vehicle: saline with Tween-80 92 % of control | dose: 75.0 mg/kg/injection, schedule: Q01DX009 (ip), vehicle: saline with Tween-80 101 % of control

CCOC(=O)C1=C(OCOC)CCC(C(C)(C)C)C1 (configuration not stated)
inactive: dose: 100.0 mg/kg/injection, schedule: Q01DX001 (ip), vehicle: Klucel (hydroxypropylcellulose) (HPC) 92 % of control | dose: 200.0 mg/kg/injection, schedule: Q01DX001 (ip), vehicle: Klucel (hydroxypropylcellulose) (HPC) 98 % of control

CC1C(=O)OCC1C(c1ccccc1)(c1ccccc1)c1ccccc1 (configuration not stated)
inactive: dose: 100.0 mg/kg/injection, schedule: Q04DX002 (ip), vehicle: gum acacia 100 % of control | dose: 200.0 mg/kg/injection, schedule: Q04DX002 (ip), vehicle: gum acacia 103 % of control | dose: 400.0 mg/kg/injection, schedule: Q04DX002 (ip), vehicle: gum acacia 89 % of control

CCOC(C)(NCc1ccccc1)OCC
inactive: dose: 25.0 mg/kg/injection, schedule: Q04DX002 (ip), vehicle: Klucel (hydroxypropylcellulose) (HPC) 86 % of control | dose: 50.0 mg/kg/injection, schedule: Q04DX002 (ip), vehicle: Klucel (hydroxypropylcellulose) (HPC) 111 % of control

Nc1ncnc2c1ncn2C1CCC(CO)O1 (configuration not stated)
inactive: [9] 103 % of control | dose: 200.0 mg/kg/injection, schedule: Q01DX001 (ip), vehicle: saline 115 % of control | dose: 400.0 mg/kg/injection, schedule: Q01DX001 (ip), vehicle: saline 105 % of control

Cc1c(CC=C(c2ccccc2)c2ccccc2)cccc1C[N+](C)(C)C
inactive: dose: 5.0 mg/kg/injection, schedule: Q01DX001 (ip), vehicle: carboxymethylcellulose (CMC) 101 % of control | dose: 10.0 mg/kg/injection, schedule: Q01DX001 (ip), vehicle: carboxymethylcellulose (CMC) 106 % of control | dose: 20.0 mg/kg/injection, schedule: Q01DX001 (ip), vehicle: carboxymethylcellulose (CMC) 98 % of control | dose: 40.0 mg/kg/injection, schedule: Q01DX001 (ip), vehicle: carboxymethylcellulose (CMC) 90 % of control | dose: 80.0 mg/kg/injection, schedule: Q01DX001 (ip), vehicle: carboxymethylcellulose (CMC) 90 % of control | [10] 93 % of control

Cc1ccc(S(=O)(=O)N/N=C(/c2ccccc2)c2ccsc2C)cc1
inactive: dose: 100.0 mg/kg/injection, schedule: Q01DX001 (ip), vehicle: saline with Tween-80 98 % of control | dose: 200.0 mg/kg/injection, schedule: Q01DX001 (ip), vehicle: saline with Tween-80 88 % of control | dose: 400.0 mg/kg/injection, schedule: Q01DX001 (ip), vehicle: saline with Tween-80 92 % of control

CCCc1cc2c3c(c(=O)oc2cc1OCCN1CCCC1)CCCC3
inactive: dose: 37.5 mg/kg/injection, schedule: Q01DX001 (ip), vehicle: saline with Tween-80 92 % of control | dose: 37.5 mg/kg/injection, schedule: Q04DX003 (ip), vehicle: saline with Tween-80 96 % of control | dose: 75.0 mg/kg/injection, schedule: Q01DX001 (ip), vehicle: saline with Tween-80 94 % of control | dose: 75.0 mg/kg/injection, schedule: Q04DX003 (ip), vehicle: saline with Tween-80 100 % of control | dose: 150.0 mg/kg/injection, schedule: Q01DX001 (ip), vehicle: saline with Tween-80 100 % of control | dose: 150.0 mg/kg/injection, schedule: Q04DX003 (ip), vehicle: saline with Tween-80 98 % of control

N#Cc1cccc(C(=O)Cl)c1
inactive: dose: 25.0 mg/kg/injection, schedule: Q01DX009 (ip), vehicle: carboxymethylcellulose (CMC) 95 % of control and 96 % of control | dose: 50.0 mg/kg/injection, schedule: Q01DX009 (ip), vehicle: carboxymethylcellulose (CMC) 100 % of control and 89 % of control | [10] 92 % of control | dose: 100.0 mg/kg/injection, schedule: Q01DX009 (ip), vehicle: carboxymethylcellulose (CMC) 92 % of control and 95 % of control and 96 % of control | dose: 100.0 mg/kg/injection, schedule: Q04DX002 (ip), vehicle: carboxymethylcellulose (CMC) 95 % of control and 89 % of control | dose: 100.0 mg/kg/injection, schedule: Q04DX003 (ip), vehicle: carboxymethylcellulose (CMC) 96 % of control and 100 % of control | dose: 200.0 mg/kg/injection, schedule: Q01DX001 (ip), vehicle: carboxymethylcellulose (CMC) 92 % of control and 98 % of control | dose: 200.0 mg/kg/injection, schedule: Q04DX002 (ip), vehicle: carboxymethylcellulose (CMC) 95 % of control | dose: 200.0 mg/kg/injection, schedule: Q04DX003 (ip), vehicle: carboxymethylcellulose (CMC) 96 % of control and 100 % of control | dose: 400.0 mg/kg/injection, schedule: Q04DX003 (ip), vehicle: carboxymethylcellulose (CMC) 91 % of control

COc1ccc(Cl)cc1N
inactive: [6] 86 % of control | dose: 100.0 mg/kg/injection, schedule: Q01DX009 (ip), vehicle: saline with Tween-80 100 % of control | dose: 100.0 mg/kg/injection, schedule: Q04DX003 (ip), vehicle: Klucel (hydroxypropylcellulose) (HPC) 93 % of control | dose: 200.0 mg/kg/injection, schedule: Q01DX009 (ip), vehicle: saline with Tween-80 94 % of control | dose: 200.0 mg/kg/injection, schedule: Q04DX003 (ip), vehicle: Klucel (hydroxypropylcellulose) (HPC) 92 % of control | dose: 400.0 mg/kg/injection, schedule: Q01DX009 (ip), vehicle: saline with Tween-80 104 % of control

CCOc1nc(N)nc2c1-c1ccccc1CC2
inactive: [5] 97 % of control | dose: 200.0 mg/kg/injection, schedule: Q04DX003 (ip), vehicle: saline with Tween-80 97 % of control | dose: 400.0 mg/kg/injection, schedule: Q04DX003 (ip), vehicle: saline with Tween-80 90 % of control

CNC1CC2CCC(C2)C1(O)c1ccccc1 (configuration not stated)
inactive: dose: 25.0 mg/kg/injection, schedule: Q04DX003 (ip), vehicle: saline 91 % of control | [7] 113 % of control | [9] 100 % of control | [8] 102 % of control
